Nine compounds from publication PMC8206213, “An L-2-hydroxyglutarate biosensor based on specific transcriptional regulator LhgR” (Nature Communications, 2021) can be followed below.

Where “and” joins values, the source holds several entries; their conditions need not be identical. Identical values can stand only once.

In the first assay the test system is LHGFR0N3C. Put plainly: Influence of other compounds on the response of purified LHGFR0N3C to L-2-HG. In kind it is binding, Pseudomonas putida W619. The conditions noted are these: Suppl. Fig. 9a; 50 μM ATP; three replicates. The method, then:
(§1) Purified L-2-HG biosensors and different compounds were diluted by 50 mM Tris-HCl buffer (pH 7.4), mixed together in a black 96-well plate at a volume ratio of 3:1, and the fluorescence intensities were measured using an EnSight microplate reader (PerkinElmer, USA) with excitation at 430 nm, emission at 485 nm (mTFP) and 528 nm (Venus). […] The [L-2-HG], Kd, and p refer to the L-2-HG concentration, apparent dissociation constant, and Hill slope, respectively. Emission spectra were recorded at 430 nm excitation, in steps of 2 nm. Excitation spectra were recorded using emission at 550 nm, excitation from 380 to 535 nm in steps of 2 nm.
Turning to `Nc1ncnc2c1ncn2[C@@H]1O[C@H](COP(=O)(O)OP(=O)(O)OP(=O)(O)O)[C@@H](O)[C@H]1O` [ATP], the Emission ratio was 2.0763 and 2.03 and 2.053.

The same assay, now with this note: Suppl. Fig. 9a; 100 μM ATP; three replicates.
`Nc1ncnc2c1ncn2[C@@H]1O[C@H](COP(=O)(O)OP(=O)(O)OP(=O)(O)O)[C@@H](O)[C@H]1O` [ATP]: the Emission ratio is 2.022 and 2.017 and 2.045.

The same assay, now with this note: Suppl. Fig. 9a; 500 μM ATP; three replicates.
As for `Nc1ncnc2c1ncn2[C@@H]1O[C@H](COP(=O)(O)OP(=O)(O)OP(=O)(O)O)[C@@H](O)[C@H]1O` [ATP], the Emission ratio is 2.063 (2×) and 2.059.

The same assay, now with this note: Suppl. Fig. 9a; 1 mM ATP; three replicates.
Turning to `Nc1ncnc2c1ncn2[C@@H]1O[C@H](COP(=O)(O)OP(=O)(O)OP(=O)(O)O)[C@@H](O)[C@H]1O` [ATP], the Emission ratio is 2.142 and 2.082 and 2.1362.

The same assay, now with this note: Suppl. Fig. 9a; 5 mM ATP; three replicates.
In the case of `Nc1ncnc2c1ncn2[C@@H]1O[C@H](COP(=O)(O)OP(=O)(O)OP(=O)(O)O)[C@@H](O)[C@H]1O` [ATP], the Emission ratio was 2.1045 and 2.1074 and 2.154.

Staying with this assay, now noted: Suppl. Fig. 9a; L-2-HG alone or with the compound; three replicates.
`C[C@H](O)C(=O)O` [L-Lactate, L-lactate]: the Emission ratio was 2.088 and 2.079 and 2.04.

For the compound `O=C(O)/C=C(/CC(=O)O)C(=O)O` [Cis-aconitate, cis-aconitate], the Emission ratio was 2.04 and 2.059 and 2.056.

For the compound `CC(=O)C(=O)O` [Pyruvate, pyruvate], the Emission ratio is 2.0125 and 2.04 and 2.083.

As for `O=C(O)/C=C/C(=O)O` [Fumarate], the Emission ratio was 1.9538 and 2.042 and 2.049.

Regarding `O=C(O)CC(O)(CC(=O)O)C(=O)O` [Citrate], the Emission ratio is 1.986 and 2.033 and 2.109.

With `O=C(O)CC(=O)C(=O)O` [Oxaloacetate], the Emission ratio was 2.024 and 2.069 and 2.088.

On to `C[C@@H](O)C(=O)O` [D-Lactate, D-lactate], for which the Emission ratio was 2.084 and 2.089 and 2.108.

Regarding `O=C(O)C[C@H](O)C(=O)O` [L-Malate, L-malate], the Emission ratio was 2.062 and 2.063 and 2.08.

The next assay deals with LHGFR0N3C. Put plainly: Specificity of purified LHGFR0N3C, emission ratio with 240 μM compounds. The conditions noted are these: 240 μM compound. In kind it is binding, Pseudomonas putida W619. The method, then:
as §1
With `C[C@H](O)C(=O)O` [L-Lactate, L-lactate], the Emission ratio was 1.397 and 1.412 and 1.41; the “Induction of emission ratio changes” value is given as “None”.

As to `O=C(O)/C=C(/CC(=O)O)C(=O)O` [Cis-aconitate, cis-aconitate], the Emission ratio was 1.358 and 1.383 and 1.3936; the “Induction of emission ratio changes” value is listed as “None”.

As to `CC(=O)C(=O)O` [Pyruvate, pyruvate], the Emission ratio was 1.366 and 1.361 and 1.386; the “Induction of emission ratio changes” value is “None”.

In the case of `O=C(O)/C=C/C(=O)O` [Fumarate], the Emission ratio was 1.378 and 1.374 and 1.399; the “Induction of emission ratio changes” value is “None”.

Regarding `O=C(O)CC(O)(CC(=O)O)C(=O)O` [Citrate], the Emission ratio is 1.344 and 1.397 and 1.391; the “Induction of emission ratio changes” value is listed as “None”.

As for `O=C(O)CC(=O)C(=O)O` [Oxaloacetate], the Emission ratio was 1.3879 and 1.4027 and 1.379; the “Induction of emission ratio changes” value is “None”.

Consider `C[C@@H](O)C(=O)O` [D-Lactate, D-lactate], for which the Emission ratio turned out to be 1.395 and the “Induction of emission ratio changes” value is recorded as “None”.

On to `O=C(O)C[C@H](O)C(=O)O` [L-Malate, L-malate], for which the Emission ratio is 1.354 and 1.373 (2×); the “Induction of emission ratio changes” value is recorded as “None”.

Another assay deals with LHGFR0N7C. The assay is described as follows: Influence of other compounds on the response of purified LHGFR0N7C to L-2-HG. In kind it is binding, Pseudomonas putida W619. The conditions noted are these: Suppl. Fig. 9b; 50 μM ATP; three replicates. Here is the method:
as §1
Regarding `Nc1ncnc2c1ncn2[C@@H]1O[C@H](COP(=O)(O)OP(=O)(O)OP(=O)(O)O)[C@@H](O)[C@H]1O` [ATP], the Emission ratio is 2.546 and 2.581 and 2.59.

Still in this assay, the particulars now being: Suppl. Fig. 9b; 100 μM ATP; three replicates.
Take `Nc1ncnc2c1ncn2[C@@H]1O[C@H](COP(=O)(O)OP(=O)(O)OP(=O)(O)O)[C@@H](O)[C@H]1O` [ATP]: the Emission ratio is 2.59 and 2.574 and 2.618.

Still in this assay, the particulars now being: Suppl. Fig. 9b; 500 μM ATP; three replicates.
For the compound `Nc1ncnc2c1ncn2[C@@H]1O[C@H](COP(=O)(O)OP(=O)(O)OP(=O)(O)O)[C@@H](O)[C@H]1O` [ATP], the Emission ratio was 2.6191 and 2.584 and 2.589.

The assay is the same for the next values; noted with them: Suppl. Fig. 9b; 1 mM ATP; three replicates.
Consider `Nc1ncnc2c1ncn2[C@@H]1O[C@H](COP(=O)(O)OP(=O)(O)OP(=O)(O)O)[C@@H](O)[C@H]1O` [ATP], for which the Emission ratio is 2.6148 and 2.611 (2×).

The same assay, now with this note: Suppl. Fig. 9b; 5 mM ATP; three replicates.
In the case of `Nc1ncnc2c1ncn2[C@@H]1O[C@H](COP(=O)(O)OP(=O)(O)OP(=O)(O)O)[C@@H](O)[C@H]1O` [ATP], the Emission ratio was 2.6574 and 2.624 and 2.63.

Staying with this assay, now noted: Suppl. Fig. 9b; L-2-HG alone or with the compound; three replicates.
Regarding `C[C@H](O)C(=O)O` [L-Lactate, L-lactate], the Emission ratio was 2.6205 and 2.619 and 2.644.

In the case of `O=C(O)/C=C(/CC(=O)O)C(=O)O` [Cis-aconitate, cis-aconitate], the Emission ratio is 2.594 and 2.591 and 2.61.

Take `CC(=O)C(=O)O` [Pyruvate, pyruvate]: the Emission ratio was 2.56 and 2.596 and 2.595.

`O=C(O)/C=C/C(=O)O` [Fumarate]: the Emission ratio was 2.613 and 2.5931 and 2.59.

On to `O=C(O)CC(O)(CC(=O)O)C(=O)O` [Citrate], for which the Emission ratio is 2.561 and 2.588 and 2.595.

As for `O=C(O)CC(=O)C(=O)O` [Oxaloacetate], the Emission ratio was 2.5106 and 2.58 and 2.608.

Take `C[C@@H](O)C(=O)O` [D-Lactate, D-lactate]: the Emission ratio was 2.595 and 2.609 and 2.633.

`O=C(O)C[C@H](O)C(=O)O` [L-Malate, L-malate]: the Emission ratio is 2.598 and 2.599 and 2.61.

Another assay relates to LHGFR0N7C. Put plainly: Specificity of purified LHGFR0N7C, emission ratio with 240 μM compounds. The conditions noted are these: 240 μM compound. It is filed as binding, Pseudomonas putida W619. Here is the method: as §1
Turning to `C[C@H](O)C(=O)O` [L-Lactate, L-lactate], the Emission ratio was 1.748 and 1.739 and 1.741; the “Induction of emission ratio changes” value was “None”.

As for `O=C(O)/C=C(/CC(=O)O)C(=O)O` [Cis-aconitate, cis-aconitate], the Emission ratio is 1.7035 and 1.722 and 1.738; the “Induction of emission ratio changes” value is reported as “None”.

Consider `CC(=O)C(=O)O` [Pyruvate, pyruvate], for which the Emission ratio was 1.667 and 1.6731 and 1.709; the “Induction of emission ratio changes” value is reported as “None”.

`O=C(O)/C=C/C(=O)O` [Fumarate]: the Emission ratio is 1.695 and 1.71 and 1.714; the “Induction of emission ratio changes” value is “None”.

For `O=C(O)CC(O)(CC(=O)O)C(=O)O` [Citrate], the Emission ratio is 1.665 and 1.672 and 1.697; the “Induction of emission ratio changes” value is reported as “None”.

On to `O=C(O)CC(=O)C(=O)O` [Oxaloacetate], for which the Emission ratio is 1.671 (2×) and 1.68; the “Induction of emission ratio changes” value is “None”.

With `C[C@@H](O)C(=O)O` [D-Lactate, D-lactate], the Emission ratio was 1.7153 and 1.693 and 1.686; the “Induction of emission ratio changes” value was “None”.

Regarding `O=C(O)C[C@H](O)C(=O)O` [L-Malate, L-malate], the Emission ratio is 1.654 and 1.687 and 1.723; the “Induction of emission ratio changes” value is “None”.
